Measurements as given in patent US9867790B2, “Compositions and methods using cuminaldehyde” (NESTEC S.A., priority 2013, dated 2018).
Like-named read-outs stand apart in the source and are kept apart here.

Legend:
TRPV1 [1] = molecular target: T1, TRPV1 (Homo sapiens, UniProt Q8NER1); conditions: cited from earlier work
T1 construct: expressed in transfected cells

mice [2] = assay: gastric emptying after a single ingestion in mice (FIG. 6); type: in vivo; conditions: vs sham gavage
mice [3] = assay: insulin sensitivity in mice with chronic ingestion (FIG. 4); type: in vivo; conditions: mice chronically fed high fat diet containing 0.2 wt %, vs same diet without
mice [4] = assay: body weight gain in mice with chronic ingestion (FIG. 3); type: in vivo; conditions: mice chronically fed high fat diet containing 0.2 wt %, vs same diet without
mice [5] = assay: short term food intake after a single ingestion in mice (FIG. 5); type: in vivo; conditions: vs sham gavage
TRPA1 [6] = conditions: read-out: EC50 of TRPA1 activation; cited from earlier work
TRPV1 [7] = molecular target: T1, TRPV1; assay: desensitization of TRPV1 by pretreatment before capsaicin (FIGS. 8A, 8B); type: cell-based; conditions: applied to cells fifteen minutes before capsaicin
Protocol: (§1) Specifically, cuminaldehyde was applied to cells fifteen minutes before cinnamaldehyde, icilin and capsaicin, which are specific agonists for TRPA1, TRPM8 and TRPV1 cation channels, respectively. After specific agonist application, the cation channel expression was measured. […] The left bars in each graph represent the controls lacking cuminaldehyde pretreatment, the right bars in each graph represent the samples including cuminaldehyde pretreatment.

TRPM8 [8] = molecular target: T2, TRPM8 (Homo sapiens, UniProt Q7Z2W7); assay: desensitization of TRPM8 by pretreatment before icilin (FIGS. 8A, 8B); type: cell-based; set-up: host or cells: cells, not specified; conditions: applied to cells fifteen minutes before icilin
Protocol: as §1

TRPV1 [9] = molecular target: T1, TRPV1; assay: in vitro activation of TRPV1 in cells (FIG. 7); type: cell-based; conditions: FIG. 7, triangles
TRPM8 [10] = molecular target: T2, TRPM8; assay: in vitro activation of hTRPM8 in cells (FIG. 7); type: cell-based; set-up: expressed in transfected cells; conditions: FIG. 7, squares
TRPA1 [11] = molecular target: T3, TRPA1 (Homo sapiens, UniProt O75762); assay: desensitization of TRPA1 by pretreatment before cinnamaldehyde (FIGS. 8A, 8B); type: cell-based; conditions: applied to cells fifteen minutes before cinnamaldehyde
T3 construct: expressed in transfected cells
Protocol: as §1

TRPA1 [12] = molecular target: T3, TRPA1; assay: in vitro activation of TRPA1 in cells (FIG. 7); type: cell-based
"empty" cells = assay: in vitro activation of "empty" cells (FIG. 7); type: cell-based

T1 sequence (Q8NER1 whole entry, species assumed): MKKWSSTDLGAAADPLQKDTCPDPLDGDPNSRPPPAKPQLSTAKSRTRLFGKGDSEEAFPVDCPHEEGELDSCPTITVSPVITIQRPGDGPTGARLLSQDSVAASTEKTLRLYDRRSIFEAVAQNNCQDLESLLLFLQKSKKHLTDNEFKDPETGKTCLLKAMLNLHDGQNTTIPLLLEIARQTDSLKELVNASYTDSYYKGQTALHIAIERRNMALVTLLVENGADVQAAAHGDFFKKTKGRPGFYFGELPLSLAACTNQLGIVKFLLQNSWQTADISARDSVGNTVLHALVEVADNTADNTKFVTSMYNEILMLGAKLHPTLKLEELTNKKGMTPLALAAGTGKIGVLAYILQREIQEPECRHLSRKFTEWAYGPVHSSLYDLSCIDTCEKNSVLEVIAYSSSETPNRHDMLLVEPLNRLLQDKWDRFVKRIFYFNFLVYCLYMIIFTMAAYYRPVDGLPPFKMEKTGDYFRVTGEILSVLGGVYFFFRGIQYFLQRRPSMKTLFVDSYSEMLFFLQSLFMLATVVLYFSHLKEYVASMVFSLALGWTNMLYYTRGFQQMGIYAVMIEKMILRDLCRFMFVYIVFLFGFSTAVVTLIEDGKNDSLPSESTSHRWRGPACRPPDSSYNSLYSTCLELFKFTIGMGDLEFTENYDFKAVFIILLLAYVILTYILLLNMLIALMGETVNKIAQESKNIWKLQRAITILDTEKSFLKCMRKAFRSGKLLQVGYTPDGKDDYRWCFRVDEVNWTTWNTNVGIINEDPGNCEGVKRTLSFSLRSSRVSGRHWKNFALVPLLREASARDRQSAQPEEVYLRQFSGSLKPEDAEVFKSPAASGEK
T3 sequence (O75762 whole entry, species assumed): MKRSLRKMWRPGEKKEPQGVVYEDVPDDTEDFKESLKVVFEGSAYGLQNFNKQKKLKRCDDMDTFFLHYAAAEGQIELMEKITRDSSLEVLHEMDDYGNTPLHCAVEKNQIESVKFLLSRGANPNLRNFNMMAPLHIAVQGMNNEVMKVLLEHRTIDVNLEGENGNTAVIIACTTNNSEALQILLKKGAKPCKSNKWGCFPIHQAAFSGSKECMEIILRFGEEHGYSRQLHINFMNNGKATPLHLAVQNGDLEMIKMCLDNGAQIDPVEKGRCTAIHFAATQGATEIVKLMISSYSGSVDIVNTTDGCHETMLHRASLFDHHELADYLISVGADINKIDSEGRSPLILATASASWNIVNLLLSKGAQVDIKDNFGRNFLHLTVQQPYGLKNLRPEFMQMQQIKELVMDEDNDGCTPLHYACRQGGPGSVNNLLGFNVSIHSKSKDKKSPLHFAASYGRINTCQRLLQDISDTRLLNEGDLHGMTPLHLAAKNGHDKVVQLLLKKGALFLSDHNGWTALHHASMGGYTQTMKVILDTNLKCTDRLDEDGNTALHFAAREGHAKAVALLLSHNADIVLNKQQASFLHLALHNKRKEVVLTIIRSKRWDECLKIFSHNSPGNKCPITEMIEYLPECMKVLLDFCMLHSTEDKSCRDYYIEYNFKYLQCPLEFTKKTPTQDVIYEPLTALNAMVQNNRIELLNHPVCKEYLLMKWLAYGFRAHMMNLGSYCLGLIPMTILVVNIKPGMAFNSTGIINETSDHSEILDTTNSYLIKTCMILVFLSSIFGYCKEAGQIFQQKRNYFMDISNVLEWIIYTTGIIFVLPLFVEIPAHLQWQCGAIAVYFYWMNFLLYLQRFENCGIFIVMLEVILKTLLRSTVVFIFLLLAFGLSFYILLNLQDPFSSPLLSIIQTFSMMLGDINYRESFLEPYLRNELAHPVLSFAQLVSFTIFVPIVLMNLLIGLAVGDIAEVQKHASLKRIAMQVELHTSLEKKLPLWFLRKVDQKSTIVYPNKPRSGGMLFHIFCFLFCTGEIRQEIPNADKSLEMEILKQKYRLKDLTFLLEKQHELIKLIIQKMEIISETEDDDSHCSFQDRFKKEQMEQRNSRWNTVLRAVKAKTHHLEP
T2 sequence (Q7Z2W7 whole entry): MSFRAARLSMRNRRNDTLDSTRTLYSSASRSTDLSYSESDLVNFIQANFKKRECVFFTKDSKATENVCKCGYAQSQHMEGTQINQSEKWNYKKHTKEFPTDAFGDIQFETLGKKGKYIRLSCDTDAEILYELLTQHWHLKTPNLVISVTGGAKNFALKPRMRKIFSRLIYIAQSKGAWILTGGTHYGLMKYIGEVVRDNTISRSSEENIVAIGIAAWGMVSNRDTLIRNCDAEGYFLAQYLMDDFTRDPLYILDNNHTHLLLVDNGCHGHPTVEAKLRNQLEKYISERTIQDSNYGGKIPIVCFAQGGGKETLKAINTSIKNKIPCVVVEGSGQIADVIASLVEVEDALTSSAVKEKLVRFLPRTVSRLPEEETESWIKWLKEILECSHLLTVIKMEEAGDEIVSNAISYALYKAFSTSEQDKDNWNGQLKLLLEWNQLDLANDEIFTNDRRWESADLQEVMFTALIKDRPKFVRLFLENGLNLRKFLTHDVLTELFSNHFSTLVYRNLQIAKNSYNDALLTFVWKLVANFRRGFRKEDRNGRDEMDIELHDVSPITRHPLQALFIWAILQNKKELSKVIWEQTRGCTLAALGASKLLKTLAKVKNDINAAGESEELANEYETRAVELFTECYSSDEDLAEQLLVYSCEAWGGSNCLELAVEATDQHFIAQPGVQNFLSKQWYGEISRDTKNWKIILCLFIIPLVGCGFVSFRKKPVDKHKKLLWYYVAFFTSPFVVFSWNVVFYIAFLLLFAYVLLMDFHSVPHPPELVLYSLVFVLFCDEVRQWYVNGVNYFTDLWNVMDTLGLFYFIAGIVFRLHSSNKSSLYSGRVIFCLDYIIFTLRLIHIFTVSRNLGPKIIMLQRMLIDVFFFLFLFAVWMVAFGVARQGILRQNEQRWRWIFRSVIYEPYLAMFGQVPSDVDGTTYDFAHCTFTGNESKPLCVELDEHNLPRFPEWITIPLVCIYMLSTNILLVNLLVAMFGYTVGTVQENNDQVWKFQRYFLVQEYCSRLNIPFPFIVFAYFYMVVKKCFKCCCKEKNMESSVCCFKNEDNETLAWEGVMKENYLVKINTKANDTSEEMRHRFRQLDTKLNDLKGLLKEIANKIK

Compound	activation of TRPV1 (TRPV1 [1])	gastric emptying (mice [2])	insulin sensitivity (mice [3])	body weight gain (mice [4])	short term food intake (mice [5])	EC50 (TRPA1 [6])	desensitization of TRPV1 (TRPV1 [7])	desensitization of TRPM8 (TRPM8 [8])	activation of TRPV1 (TRPV1 [9])	activation of hTRPM8 (TRPM8 [10])	desensitization of TRPA1 (TRPA1 [11])	activation of TRPA1 (TRPA1 [12]; FIG. 7, diamonds)	efficacy of TRPA1 activation relative to cinnamaldehyde (TRPA1 [12]; relative to known TRPA1 agonist cinnamaldehyde)	activation of "empty" cells ("empty" cells)
O=CC=Cc1ccccc1 [cinnamaldehyde]	not	delayed gastric emptying	improved insulin sensitivity	gained less weight	reduction in short term food intake	~60 µM								
CC(C)c1ccc(C=O)cc1 [cuminaldehyde]							does not desensitize	does not desensitize	no activation was observed	no activation was observed	does not desensitize	activated TRPA1 (diamonds) in a dose-dependent fashion	140%	no activation was observed
